Experimental data: patent US20150225404A1, “PYRIDINE DERIVATIVE AND MEDICINE” (NIPPON SHINYAKU CO., LTD., priority 2012, published 2015)
Counter-ions that a name gives are not always drawn.

target: T1, human mGluR5 (Homo sapiens, UniProt P41594); test: Experiment for receptor function of mGluR5 (Ca2+-dependent fluorescence, FLIPR, CHO-K1 cells stably expressing human mGluR5); assay type: cell-based; conditions: L-glutamic acid 10 μM, Fluo-4 fluorescence
T1 construct: expressed in transfected cells
T1 sequence (P41594 21-1212): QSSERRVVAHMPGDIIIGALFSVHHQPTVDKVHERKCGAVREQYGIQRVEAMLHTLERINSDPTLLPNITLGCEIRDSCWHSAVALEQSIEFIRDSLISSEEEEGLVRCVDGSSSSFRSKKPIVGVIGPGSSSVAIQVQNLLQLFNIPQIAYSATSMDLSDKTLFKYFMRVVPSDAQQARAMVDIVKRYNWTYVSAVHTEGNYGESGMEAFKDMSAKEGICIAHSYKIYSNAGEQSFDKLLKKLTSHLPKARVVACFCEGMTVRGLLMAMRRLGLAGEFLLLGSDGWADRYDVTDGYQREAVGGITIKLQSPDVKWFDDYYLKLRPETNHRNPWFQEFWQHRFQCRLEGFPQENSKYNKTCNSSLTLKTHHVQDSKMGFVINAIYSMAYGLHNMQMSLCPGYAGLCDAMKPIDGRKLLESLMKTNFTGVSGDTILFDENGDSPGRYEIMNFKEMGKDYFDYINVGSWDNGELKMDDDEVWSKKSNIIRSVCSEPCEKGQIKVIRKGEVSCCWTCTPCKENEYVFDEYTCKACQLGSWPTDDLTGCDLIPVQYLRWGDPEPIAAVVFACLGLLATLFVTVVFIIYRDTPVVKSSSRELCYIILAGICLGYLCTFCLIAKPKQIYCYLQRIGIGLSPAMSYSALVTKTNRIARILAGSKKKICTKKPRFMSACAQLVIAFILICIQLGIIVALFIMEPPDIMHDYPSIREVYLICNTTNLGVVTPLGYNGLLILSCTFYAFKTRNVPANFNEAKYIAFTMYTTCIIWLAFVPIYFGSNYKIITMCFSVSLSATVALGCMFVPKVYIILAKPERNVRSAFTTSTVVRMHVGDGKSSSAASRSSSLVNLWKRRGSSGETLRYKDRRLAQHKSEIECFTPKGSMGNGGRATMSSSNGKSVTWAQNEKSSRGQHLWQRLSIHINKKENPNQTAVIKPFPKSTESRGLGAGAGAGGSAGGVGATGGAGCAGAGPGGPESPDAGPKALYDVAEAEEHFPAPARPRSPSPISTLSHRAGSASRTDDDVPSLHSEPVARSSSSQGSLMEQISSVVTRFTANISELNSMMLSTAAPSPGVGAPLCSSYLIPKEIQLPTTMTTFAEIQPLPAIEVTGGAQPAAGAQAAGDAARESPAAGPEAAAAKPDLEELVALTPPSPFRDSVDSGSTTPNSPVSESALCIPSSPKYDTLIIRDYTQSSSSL
Experimental: Stable expression cells in which the human mGluR5 gene had been introduced into a Chinese hamster ovary cell (CHO-K1) were used for evaluation. The cells were suspended in a growth medium (MEM-α (D8042, available from Sigma) containing 10% inactivated FBS (Cat. No. 171012, available from CCB) and 2 mM glutamax (Cat. No. 35050, available from GIBCO)) and seeded on a black clear-bottom 96-well plate at 100,000 cells per well. One day after seeding, the medium was replaced by a medium (Hanks' balanced salt solution (HBSS buffer solution) (20 mM HEPES, 2.5 mM probencide (165-15472, available from Wako Pure Chemical Industries, Ltd.), and 10×HBSS (14065-056, available from Gibco) diluted 10 times, pH 7.4)) containing a calcium-sensitive dye Fluo-4 AM at a final concentration of […] (F312, available from Dojindo Laboratories) and Pluronic F-127 at a final concentration of 0.0145% (P-2443, available from Sigma), followed by incubation at 37° C. for one hour, thereby loading Fluo-4 AM into the cells.
Subsequently, the cells were washed twice with an HBSS buffer solution, to which was subsequently added the same buffer solution. Twenty minutes thereafter, the plate was transferred into a fluorescence screening system (FLIPR TETRA, available from Molecular Devices, LLC) and measured for a Ca^2+-dependent fluorescence change in the cells.
First of all, a fluorescence baseline was measured, and thereafter, fluorescence measurement was performed for 2 minutes while adding a test substance, an excessive amount of 6-methyl-2-(phenylethynyl)pyridine (hereinafter referred to as “MPEP”) (final concentration: 10 μM), or the medium. Thereafter, fluorescence measurement was carried out for one minute while adding L-glutamic acid (final concentration: 10 μM).
While taking a fluorescence intensity caused by L-glutamic acid as 100% and a fluorescence intensity caused by L-glutamic acid in the presence of MPEP as 0%, respectively, function inhibitory activity against human mGluR5 was evaluated from the fluorescence intensity caused by L-glutamic acid in the presence of the test substance at each concentration, and an IC50 value was estimated according to a logistic equation (SAS System).

IC50 | SMILES
75 nM | c1cncc(-c2cc(OCc3nccs3)nc3c2CCCC3)c1 [Example 94, 4-(Pyridin-3-yl)-2-(1,3-thiazol-2-ylmethoxy)-5,6,7,8-tetrahydroquinoline hydrochloride]
42 nM | Cc1csc(COc2cc(-c3cccnc3)c3c(n2)CCCC3)n1 [Example 95, 2-[(4-Methyl-1,3-thiazol-2-yl)methoxy]-4-(pyridin-3-yl)-5,6,7,8-tetrahydroquinoline]
56.3 nM | Cc1nc(COc2cc(-c3cccnc3)c3c(n2)CCCC3)cs1 [Example 96, 2-[(2-Methyl-1,3-thiazol-4-yl)methoxy]-4-(pyridin-3-yl)-5,6,7,8-tetrahydroquinoline]
23.4 nM | Fc1ccc(-c2cc(OCc3ccccn3)nc3c2CCCC3)cn1 [Example 101, 4-(6-Fluoropyridin-3-yl)-2-(pyridin-2-ylmethoxy)-5,6,7,8-tetrahydroquinoline dihydrochloride]
51.2 nM | COc1cncc(-c2cc(OCc3ccccn3)nc3c2CCCC3)c1 [Example 102, 4-(5-Methoxypyridin-3-yl)-2-(pyridin-2-ylmethoxy)-5,6,7,8-tetrahydroquinoline hydrochloride]
51.7 nM | N#Cc1ccc(-c2cc(OCc3ccccn3)nc3c2CCCC3)cn1 [Example 104, 5-[2-(Pyridin-2-ylmethoxy)-5,6,7,8-tetrahydroquinolin-4-yl]pyridine-2-carbonitrile hydrochloride]
81.2 nM | Fc1cncc(-c2cc(OCc3ccccn3)nc3c2CCCC3)c1 [Example 107, 4-(5-Fluoropyridin-3-yl)-2-(pyridin-2-ylmethoxy)-5,6,7,8-tetrahydroquinoline hydrochloride]
68.8 nM | N#Cc1cncc(-c2cc(OCc3ccccn3)nc3c2CCCC3)c1 [Example 113, 5-[2-(Pyridin-2-ylmethoxy)-5,6,7,8-tetrahydroquinolin-4-yl]pyridine-3-carbonitrile hydrochloride]
98.7 nM | CC(=O)c1cncc(-c2cc(OCc3ccccn3)nc3c2CCCC3)c1 [Example 115, 1-{5-[2-(Pyridin-2-ylmethoxy)-5,6,7,8-tetrahydroquinolin-4-yl]pyridin-3-yl}ethanone dihydrochloride]
133 nM | COC(=O)c1cncc(-c2cc(OCc3ccccn3)nc3c2CCCC3)c1 [Example 116, Methyl 5-[2-(pyridin-2-ylmethoxy)-5,6,7,8-tetrahydroquinolin-4-yl]pyridine-3-carboxylate]
206 nM | CN(C)C(=O)c1cncc(-c2cc(OCc3ccccn3)nc3c2CCCC3)c1 [Example 120, N,N-Dimethyl-5-[2-(pyridin-2-ylmethoxy)-5,6,7,8-tetrahydroquinolin-4-yl]pyridine-3-carboxamide hydrochloride]
72.7 nM | OCc1cncc(-c2cc(OCc3ccccn3)nc3c2CCCC3)c1 [Example 122, {5-[2-(Pyridin-2-ylmethoxy)-5,6,7,8-tetrahydroquinolin-4-yl]pyridin-3-yl}methanol hydrochloride]
58.8 nM | COCc1cncc(-c2cc(OCc3ccccn3)nc3c2CCCC3)c1 [Example 123, 4-[5-(Methoxymethyl)pyridin-3-yl]-2-(pyridin-2-ylmethoxy)-5,6,7,8-tetrahydroquinoline hydrochloride]
24.8 nM | Nc1cncc(-c2cc(OCc3ccccn3)nc3c2CCCC3)c1 [Example 124, 5-[2-(Pyridin-2-ylmethoxy)-5,6,7,8-tetrahydroquinolin-4-yl]pyridin-3-amine]
45.6 nM | CNc1cncc(-c2cc(OCc3ccccn3)nc3c2CCCC3)c1 [Example 125, N-Methyl-5-[2-(pyridin-2-ylmethoxy)-5,6,7,8-tetrahydroquinolin-4-yl]pyridin-3-amine]
99.8 nM | CN(C)c1cncc(-c2cc(OCc3ccccn3)nc3c2CCCC3)c1 [Example 126, N,N-Dimethyl-5-[2-(pyridin-2-ylmethoxy)-5,6,7,8-tetrahydroquinolin-4-yl]pyridin-3-amine]
